Test results: PMC11157491, “Novel Alaninamide Derivatives with Drug-like Potential for Development as Antiseizure and Antinociceptive Therapies—In Vitro and In Vivo Characterization” (ACS Chemical Neuroscience, 2024)

Columns and labels:
[1] = target: CYP3A4 (Homo sapiens, UniProt P08684); conditions: 1 μM
[2] = tested on: mice; experiment: Timed ivPTZ seizure threshold test; format: in vivo; conditions: 50 mg/kg i.p.
Source text: The timed intravenous (iv) PTZ-induced seizure test was used to characterize the acute effect of compounds 26 and 28 on the thresholds for myoclonic, clonic, and tonic seizure in mice (Figure 2). It is noteworthy that the ivPTZ seizure test is a very sensitive method for determining the compounds’ effects on seizure threshold in rodents.[35] […] In the ivPTZ seizure test, bilateral forelimb tonic extension is usually quickly followed by hindlimb tonic extension and death due to respiratory arrest. […] In mice with no forelimb tonus, PTZ infusion was stopped after 180 s and the threshold dose of PTZ (in mg/kg) was calculated in those mice taking 180 s as infusion duration.
Figure 2 Acute effects of compounds 26 (A) and 28 (B) on seizure thresholds in the timed ivPTZ seizure test in mice. Both compounds were administered i.p. at a dose of 50 mg/kg, 30 min before the test. Control animals received vehicle. Data are presented as means (mg/kg PTZ) ± SEM (n = 9–13 animals). The statistical significance was evaluated by a Student’s t-test: *p < 0.05, **p < 0.01, ***p < 0.001, and ****p < 0.0001, as compared to the vehicle-treated group (GraphPad Prism 8).
In studies assessing the acute effect of compounds 26 and 28 on the ivPTZ seizure threshold and neuromuscular strength, the compounds were suspended in a 1% solution of Tween 80 and administered i.p., at a dose of 50 mg/kg of body weight, 30 min before the tests. The experimental procedures of the timed ivPTZ test and the grip strength test were described in detail elsewhere.[64]
Data from the ivPTZ test and the grip strength test were analyzed using Student’s t-test.

[3] = target: T1, Cav1.2 (h) calcium ion channel (Homo sapiens, UniProt Q13936); experiment: Cav1.2 cell-based antagonist calcium flux assay; conditions: HEK293, human recombinant HEK-293 cell, read-out: % inhibition of control agonist response
T1 construct: Eurofins (contract assay)
Description: (§1) Importantly, sodium or calcium conductance is often associated with the pathophysiology of epilepsy as well as neuropathic pain.[46]−[50] Therefore, both sodium and calcium ion channels are well-established molecular targets for structurally diverse ASMs such as LCS, lamotrigine, carbamazepine, oxcarbazepine, etc.[51] Consequently, we carried out binding and/or functional studies toward the sodium channel (site 2) and calcium Cav1.2 channel at high concentrations (100 μM) of 26 and 28 (Table 5). […] Next, 26 and 28 due to the presence of the phenylpiperazine moiety, which is a well-recognized pharmacophore for serotoninergic receptor (5-HTxR) ligands,[52] were evaluated for their influence on 5-HT2CR, where stimulation plays a key role for the antiseizure activity of lorcaserin (one of the newest ASMs).[6]
(§2) Binding/functional studies were carried out commercially in Eurofins Laboratories (Poitiers, France) and Eurofins Panlabs Discovery Services Taiwan, Ltd. (New Taipei City, Taiwan) using testing procedures that were reported previously (for details, see Table S2).
(§3) Table S2. Radioligand binding and functional assays. […]
Cav1.2 (L-type) (h) calcium ion channel cell-based antagonist calcium flux assay […]
(§4) Assays were performed commercially in Eurofins Laboratories ( Poitiers, France) or Eurofins Panlabs Discovery Services
(§5) Taiwan, Ltd. (New Taipei City, Taiwan).

[4] = PAMPA passive permeability; format: in vitro ADME; conditions: precoated PAMPA Plate System; for Papp: read-out: PAMPA—Pe ± SD
Source text: The precoated parallel artificial membrane permeability assay (PAMPA) was used to determine the passive mechanism of permeability.

[5] = target: 5-HT2C (h) (Homo sapiens, UniProt P28335); experiment: 5-HT2C agonist effect functional assay; format: cell-based; conditions: HEK293, human recombinant HEK-293 cell, read-out: % inhibition of control agonist response (5-HT2C agonist effect)
Description: as §1, §2, §3
5-HT2C (agonist effect)
as §4, §5

[6] = tested on: HSA and AGP; experiment: in vitro; conditions: human, plasma
Description: (§7) The plasma protein binding: human serum albumin (HSA) and α1-acid glycoprotein (AGP) was evaluated by the commercial TRANSIL^XL PPB assay.

[7] = tested on: human serum albumin (HSA) and α1-acid glycoprotein (AGP)
Description: as §7

[8] = target: T2, TRPV1 (VR1) (h) (Homo sapiens, UniProt Q8NER1); experiment: TRPV1 antagonist effect functional assay; format: cell-based; conditions: 10 μM, human recombinant CHO cells; read-out: % inhibition of control agonist response
T2 construct: Eurofins (contract assay)
Description: For many years, the TRPV1 channel, permeable to calcium and sodium ions, has been recognized as a promising molecular target for novel analgesics.[19] […] Therefore, bearing in mind the involvement of TRPV1 in pain sensation and potentially in seizure induction, in the next step of the in vitro studies, the TRPV1 antagonist activity was determined for all compounds obtained (Table 6).
as §2, §3
TRPV1 (VR1) (h) (antagonist effect) […]
as §4, §5

[9] = tested on: mice; experiment: Subcutaneous pentylenetetrazole (scPTZ) seizure test; format: in vivo; conditions: 100 mg/kg i.p.; for scPTZ: number of mice protected/number of mice tested: 0.5 h
Source text: These parameters were then used to calculate the protective indexes (PIs, PI = TD50/ED50), which describe the therapeutics window of potential drug candidates. The ED50, TD50, and PI values for the tested compounds together with data of their chemical prototypes KA-11 and KJ-5 and reference ASMs are summarized in Table 2.
In the initial screening studies, four mice per group were randomly assigned to each experimental group (each mouse was used only once). To evaluate the ED50 or TD50 values, four groups consisting of eight animals were injected with various doses of tested compounds. The protective indexes (PIs) for the compounds investigated and reference ASMs were calculated by dividing the TD50 value, as determined in the chimney test, by the respective ED50 value, as determined in the MES, scPTZ, or 6 Hz (32 or 44 mA) tests (PI = TD50/ED50). The PIs are a measure of the potential therapeutic window of the tested agent.
All substances were suspended in Tween 80 (1% aqueous solution) and administered i.p. as a single injection at a dose of 10 mL/kg. On each day of experimentation, fresh solutions were prepared. The detailed in vivo procedures are described elsewhere: the maximal electroshock seizure test (MES),[60] the subcutaneous pentylenetetrazole seizure test (scPTZ),[61] the 6 Hz psychomotor seizure model (32 and 44 mA),[62] and the chimney test.[63] The reference ASMs were purchased from commercial suppliers: VPA (Sigma-Aldrich, St. Louis, MO), LCS, and LEV (UCB Pharma, Braine l’Alleud, Belgium).

[10] = HepG2 cell viability (hepatotoxicity); format: cell-based, human; conditions: human, HepG2 hepatoma cells; at 1.56 μM, 48 h; read-out: HepG2 viability (% of control ± SD)
Description: (§6) The in vitro safety tests were performed with the use of a hepatoma HepG2 cell line to estimate the hepatotoxic potential of the tested compounds.

[11] = tested on: HepG2 cell line; experiment: HepG2 cell viability (hepatotoxicity); format: cell-based, human; conditions: for cell survival: HepG2, 100 μM; for concentration from which a statistically significant decrease of cell viability was observed: HepG2, 48 h
Description: as §6

Chain of 5-HT2C (h) (P28335 33-458): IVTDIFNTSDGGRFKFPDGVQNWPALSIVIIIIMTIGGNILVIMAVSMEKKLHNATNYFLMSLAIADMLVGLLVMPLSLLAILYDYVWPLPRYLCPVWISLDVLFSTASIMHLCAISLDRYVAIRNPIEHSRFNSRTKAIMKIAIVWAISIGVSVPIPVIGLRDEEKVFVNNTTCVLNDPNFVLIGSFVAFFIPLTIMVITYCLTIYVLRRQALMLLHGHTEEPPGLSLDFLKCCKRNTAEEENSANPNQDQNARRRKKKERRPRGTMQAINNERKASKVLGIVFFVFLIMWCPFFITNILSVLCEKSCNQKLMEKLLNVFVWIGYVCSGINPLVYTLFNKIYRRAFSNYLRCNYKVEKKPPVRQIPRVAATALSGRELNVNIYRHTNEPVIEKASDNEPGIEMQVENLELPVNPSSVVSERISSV
Chain of CYP3A4 (P08684 whole entry): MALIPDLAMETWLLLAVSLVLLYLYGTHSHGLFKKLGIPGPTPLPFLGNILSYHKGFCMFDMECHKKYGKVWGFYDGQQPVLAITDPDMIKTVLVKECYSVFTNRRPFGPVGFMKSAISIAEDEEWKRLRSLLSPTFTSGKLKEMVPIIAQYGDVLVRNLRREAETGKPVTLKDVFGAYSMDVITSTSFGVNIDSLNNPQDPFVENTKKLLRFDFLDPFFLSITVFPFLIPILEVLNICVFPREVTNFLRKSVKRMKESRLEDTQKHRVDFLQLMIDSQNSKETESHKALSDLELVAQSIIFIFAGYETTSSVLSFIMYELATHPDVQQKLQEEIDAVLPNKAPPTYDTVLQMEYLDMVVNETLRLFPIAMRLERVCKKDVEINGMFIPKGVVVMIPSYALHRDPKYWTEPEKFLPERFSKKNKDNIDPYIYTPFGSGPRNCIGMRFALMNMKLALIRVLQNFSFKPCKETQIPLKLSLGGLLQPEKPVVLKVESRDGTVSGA
T2 sequence (Q8NER1 whole entry): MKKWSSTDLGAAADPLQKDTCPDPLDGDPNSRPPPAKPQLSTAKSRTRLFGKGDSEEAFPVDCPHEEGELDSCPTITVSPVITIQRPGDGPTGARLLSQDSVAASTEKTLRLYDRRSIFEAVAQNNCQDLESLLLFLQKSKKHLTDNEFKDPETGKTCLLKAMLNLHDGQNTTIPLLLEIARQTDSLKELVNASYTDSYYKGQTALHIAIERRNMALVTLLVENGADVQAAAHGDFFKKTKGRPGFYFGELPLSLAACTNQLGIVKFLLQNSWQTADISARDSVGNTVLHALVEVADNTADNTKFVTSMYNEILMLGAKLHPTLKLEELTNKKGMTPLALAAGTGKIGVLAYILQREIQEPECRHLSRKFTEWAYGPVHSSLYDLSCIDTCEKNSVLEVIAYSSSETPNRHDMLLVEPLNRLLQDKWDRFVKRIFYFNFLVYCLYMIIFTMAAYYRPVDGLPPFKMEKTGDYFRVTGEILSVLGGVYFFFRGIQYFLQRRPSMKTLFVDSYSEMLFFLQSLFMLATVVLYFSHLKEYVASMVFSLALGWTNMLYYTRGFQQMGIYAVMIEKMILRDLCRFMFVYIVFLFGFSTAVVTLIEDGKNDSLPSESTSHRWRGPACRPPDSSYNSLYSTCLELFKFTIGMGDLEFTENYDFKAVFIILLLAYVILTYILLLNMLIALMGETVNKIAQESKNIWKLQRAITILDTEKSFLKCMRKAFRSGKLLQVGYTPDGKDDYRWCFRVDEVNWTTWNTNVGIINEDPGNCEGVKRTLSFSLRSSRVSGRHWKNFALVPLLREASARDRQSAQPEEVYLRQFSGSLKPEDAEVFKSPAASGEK

SMILES	CYP3A4 activity (% of control ± SD) [1] [%]	mice in which hindlimb tonus (only) was diminished/inhibited ([2]; 12 mice)	seizure threshold for generalized clonic seizure with loss of righting reflex ([2]; 30 min before ivPTZ)	seizure threshold for the first myoclonic twitch ([2]; 30 min before ivPTZ)	threshold for forelimb tonus ([2]; 30 min before ivPTZ)	inhibition at 100 µM [3] [%]	PAMPA—Pe ± SD [4]	Papp [4] [×10⁻⁶ cm/s]	inhibition at 10 µM [5] [%]	fraction unbound [6]	plasma protein binding—KD [7] [µM]	inhibition at 10 µM [8] [%]	protection in scPTZ screening [9] [%]	scPTZ: number of mice protected/number of mice tested [9]	viability at 48 h, 1.56 µM [10] [%]	cell survival [11]	concentration from which a statistically significant decrease of cell viability was observed [11] [µM]	mice in which both fore- and hindlimb tonus were completely inhibited ([2]; 12 mice)
CC(=O)NC(C)C(=O)N1CCN(c2cccc(C(F)(F)F)c2)CC1 (stereo not shown) [Compound 26, N-(1-oxo-1-(4-(3-(Trifluoromethyl)phenyl)piperazin-1-yl)propan-2-yl)acetamide]	114.1 ± 8.7	10 out of 12	significantly raised	significantly raised	did not significantly affect	7	4.51 10^–6 cm/s	4.51 ± 0.61	0.5	0.214	1670.0	-4.9	25	1/4	104 ± 8.8	approximately 40%	12.5	
CC(=O)NC(C)C(=O)N1CCN(c2cccc(OC(F)(F)F)c2)CC1 (stereo not shown) [Compound 28, N-(1-oxo-1-(4-(3-(Trifluoromethoxy)phenyl)piperazin-1-yl)propan-2-yl)acetamide]	91.3 ± 12.7	3 mice	significantly raised	significantly raised		-7.9	5.95 10^–6 cm/s	5.95 ± 0.51	0.1	0.17	1260.0	6.5	25	1/4	88.2 ± 16.1	approximately 40%	25	9 out of 12
